# In PMC9186362, “Design and biological evaluation of substituted 5,7-dihydro-6H-indolo[2,3-c]quinolin-6-one as novel selective Haspin inhibitors” (Journal of Enzyme Inhibition and Medicinal Chemistry, 2022):
# Key:
# Assay in all cases: SelectScreen ZLYTE
# Type in all cases: biochemical
# Settings in all cases: ATP Km, read-out: Percentage of inhibition
# LTK (TYK1) = target: T1, LTK (TYK1) (Homo sapiens, UniProt P29376)
# T1 construct: purchased Life Technologies (SelectScreen Whole Panel service)
# Outline: (§1)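 Single-point screen, 1 μM compound; % inhibition per kinase in a large profiling panel.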
# CSF1R (FMS) = CSF1R (FMS) (Homo sapiens, UniProt P07333)
# Outline: as §1
# MERTK = target: T2, MERTK (Homo sapiens, UniProt Q12866)
# T2 construct: purchased Life Technologies (SelectScreen Whole Panel service)
# Outline: as §1
# ROS1 = target: T3, ROS1 (Homo sapiens, UniProt P08922)
# T3 construct: purchased Life Technologies
# Outline: as §1
# MELK = MELK (Homo sapiens, UniProt Q14680)
# Outline: as §1
# KIT V559D V654A = KIT V559D V654A (Homo sapiens, UniProt P10721, V559D/V654A)
# Outline: as §1
# ERBB4 (HER4) = ERBB4 (HER4) (Homo sapiens, UniProt Q15303)
# Outline: as §1
# MAPK3 (ERK1) = target: T4, MAPK3 (ERK1) (Homo sapiens, UniProt P27361)
# T4 construct: purchased Life Technologies
# Outline: as §1
# STK4 (MST1) = target: T5, STK4 (MST1) (Homo sapiens, UniProt Q13043)
# T5 construct: purchased Life Technologies (SelectScreen Whole Panel)
# Outline: as §1
# CSNK2A2 (CK2 alpha 2) = target: T6, CSNK2A2 (CK2 alpha 2) (Homo sapiens, UniProt P19784)
# T6 construct: purchased Life Technologies (SelectScreen Whole Panel service)
# Outline: as §1
# EPHA8 = target: T7, EPHA8 (Homo sapiens, UniProt P29322)
# T7 construct: purchased Life Technologies (SelectScreen Whole Panel service)
# Outline: as §1
# TNK1 = target: T8, TNK1 (Homo sapiens, UniProt Q13470)
# T8 construct: purchased Life Technologies
# Outline: as §1
# PRKD1 (PKC mu) = target: T9, PRKD1 (PKC mu) (Homo sapiens, UniProt Q15139)
# T9 construct: purchased Life Technologies (SelectScreen Whole Panel service)
# Outline: as §1
# PRKCH (PKC eta) = PRKCH (PKC eta) (Homo sapiens, UniProt P24723)
# Outline: as §1
# FGFR3 K650E = target: T10, FGFR3 K650E (Homo sapiens, UniProt P22607, K650E)
# T10 construct: purchased Life Technologies (SelectScreen Whole Panel service)
# Outline: as §1
# PTK6 (Brk) = PTK6 (Brk) (Homo sapiens, UniProt Q13882)
# Outline: as §1
# DYRK1B = target: T11, DYRK1B (Homo sapiens, UniProt Q9Y463)
# T11 construct: purchased Life Technologies
# Outline: as §1
# TEK (Tie2) = target: T12, TEK (Tie2) (Homo sapiens, UniProt Q02763)
# T12 construct: purchased Life Technologies (SelectScreen Whole Panel service)
# Outline: as §1
# DAPK3 (ZIPK) = target: T13, DAPK3 (ZIPK) (Homo sapiens, UniProt O43293)
# T13 construct: purchased Life Technologies (SelectScreen Whole Panel service)
# Outline: as §1
# PASK = target: T14, PASK (Homo sapiens, UniProt Q96RG2)
# T14 construct: purchased Life Technologies (SelectScreen Whole Panel)
# Outline: as §1
# ALK = target: T15, ALK (Homo sapiens, UniProt Q9UM73)
# T15 construct: purchased Life Technologies (SelectScreen service)
# Outline: as §1
# CHEK2 (CHK2) = target: T16, CHEK2 (CHK2) (Homo sapiens, UniProt O96017)
# T16 construct: purchased Life Technologies
# Outline: as §1
# MINK1 = MINK1 (Homo sapiens, UniProt Q8N4C8)
# Outline: as §1
# CLK1 = target: T17, CLK1 (Homo sapiens, UniProt P49759)
# T17 construct: purchased Life Technologies (SelectScreen Whole Panel)
# Outline: as §1
# AURKA (Aurora A) = AURKA (Aurora A) (Homo sapiens, UniProt O14965)
# Outline: as §1
# NTRK2 (TRKB) = target: T18, NTRK2 (TRKB) (Homo sapiens, UniProt Q16620)
# T18 construct: purchased Life Technologies (SelectScreen service)
# Outline: as §1
# ABL1 E255K = target: T19, ABL1 E255K (Homo sapiens, UniProt P00519, E255K)
# T19 construct: purchased Life Technologies
# Outline: as §1
# NEK9 = target: T20, NEK9 (Homo sapiens, UniProt Q8TD19)
# T20 construct: purchased Life Technologies
# Outline: as §1
# RPS6KA1 (RSK1) = target: T21, RPS6KA1 (RSK1) (Homo sapiens, UniProt Q15418)
# T21 construct: purchased Life Technologies (SelectScreen service)
# Outline: as §1
# FES (FPS) = target: T22, FES (FPS) (Homo sapiens, UniProt P07332)
# T22 construct: purchased Life Technologies (SelectScreen service)
# Outline: as §1
# PDGFRA D842V = target: T23, PDGFRA D842V (Homo sapiens, UniProt P16234, D842V)
# T23 construct: purchased Life Technologies (SelectScreen Whole Panel service)
# Outline: as §1
# KIT V560G = target: T24, KIT V560G (Homo sapiens, UniProt P10721, V560G)
# T24 construct: purchased Life Technologies
# Outline: as §1
# CDK2/cyclin A = target: T25, CDK2/cyclin A (Homo sapiens, UniProt P24941)
# T25 construct: purchased Life Technologies
# Outline: as §1
# KIT = KIT (Homo sapiens, UniProt P10721)
# Outline: as §1
# ROCK2 = target: T26, ROCK2 (Homo sapiens, UniProt O75116)
# T26 construct: purchased Life Technologies
# Outline: as §1
# MST4 = MST4 (Homo sapiens, UniProt Q9P289)
# Outline: as §1
# EPHA2 = target: T27, EPHA2 (Homo sapiens, UniProt P29317)
# T27 construct: purchased Life Technologies
# Outline: as §1
# KIT V559D = target: T28, KIT V559D (Homo sapiens, UniProt P10721, V559D)
# T28 construct: purchased Life Technologies
# Outline: as §1
# CLK2 = target: T29, CLK2 (Homo sapiens, UniProt P49760)
# T29 construct: purchased Life Technologies
# Outline: as §1
# T24 sequence (P10721 26-976 V560G): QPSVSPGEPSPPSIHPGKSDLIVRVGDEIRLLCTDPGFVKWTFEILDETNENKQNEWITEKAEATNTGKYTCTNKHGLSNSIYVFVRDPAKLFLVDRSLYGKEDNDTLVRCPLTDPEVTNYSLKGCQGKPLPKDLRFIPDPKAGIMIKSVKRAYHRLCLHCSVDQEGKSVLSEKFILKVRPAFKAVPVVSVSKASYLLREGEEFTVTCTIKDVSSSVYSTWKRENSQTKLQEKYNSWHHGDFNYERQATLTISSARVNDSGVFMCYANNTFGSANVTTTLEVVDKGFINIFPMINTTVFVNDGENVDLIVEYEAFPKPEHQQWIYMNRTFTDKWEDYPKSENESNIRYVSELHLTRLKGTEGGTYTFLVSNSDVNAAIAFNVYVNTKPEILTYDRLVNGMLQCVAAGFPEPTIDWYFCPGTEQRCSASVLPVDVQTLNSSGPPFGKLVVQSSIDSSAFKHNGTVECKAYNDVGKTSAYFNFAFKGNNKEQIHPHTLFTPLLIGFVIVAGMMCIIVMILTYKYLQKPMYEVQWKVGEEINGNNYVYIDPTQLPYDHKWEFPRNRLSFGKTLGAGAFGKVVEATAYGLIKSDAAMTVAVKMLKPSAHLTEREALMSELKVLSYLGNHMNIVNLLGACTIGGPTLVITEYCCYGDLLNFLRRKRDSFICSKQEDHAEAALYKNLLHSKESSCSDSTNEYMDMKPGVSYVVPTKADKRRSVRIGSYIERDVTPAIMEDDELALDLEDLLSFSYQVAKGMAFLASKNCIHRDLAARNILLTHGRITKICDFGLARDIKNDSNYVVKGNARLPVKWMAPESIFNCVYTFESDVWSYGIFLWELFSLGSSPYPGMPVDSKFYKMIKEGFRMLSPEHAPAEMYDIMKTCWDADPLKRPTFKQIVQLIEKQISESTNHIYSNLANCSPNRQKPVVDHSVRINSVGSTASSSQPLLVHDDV
# Chain of KIT V559D V654A (P10721 26-976 V559D/V654A): as the sequence (P10721 26-976 V560G) above, with V534D, G535V, V629A counted along it
# T20 sequence (Q8TD19 whole entry): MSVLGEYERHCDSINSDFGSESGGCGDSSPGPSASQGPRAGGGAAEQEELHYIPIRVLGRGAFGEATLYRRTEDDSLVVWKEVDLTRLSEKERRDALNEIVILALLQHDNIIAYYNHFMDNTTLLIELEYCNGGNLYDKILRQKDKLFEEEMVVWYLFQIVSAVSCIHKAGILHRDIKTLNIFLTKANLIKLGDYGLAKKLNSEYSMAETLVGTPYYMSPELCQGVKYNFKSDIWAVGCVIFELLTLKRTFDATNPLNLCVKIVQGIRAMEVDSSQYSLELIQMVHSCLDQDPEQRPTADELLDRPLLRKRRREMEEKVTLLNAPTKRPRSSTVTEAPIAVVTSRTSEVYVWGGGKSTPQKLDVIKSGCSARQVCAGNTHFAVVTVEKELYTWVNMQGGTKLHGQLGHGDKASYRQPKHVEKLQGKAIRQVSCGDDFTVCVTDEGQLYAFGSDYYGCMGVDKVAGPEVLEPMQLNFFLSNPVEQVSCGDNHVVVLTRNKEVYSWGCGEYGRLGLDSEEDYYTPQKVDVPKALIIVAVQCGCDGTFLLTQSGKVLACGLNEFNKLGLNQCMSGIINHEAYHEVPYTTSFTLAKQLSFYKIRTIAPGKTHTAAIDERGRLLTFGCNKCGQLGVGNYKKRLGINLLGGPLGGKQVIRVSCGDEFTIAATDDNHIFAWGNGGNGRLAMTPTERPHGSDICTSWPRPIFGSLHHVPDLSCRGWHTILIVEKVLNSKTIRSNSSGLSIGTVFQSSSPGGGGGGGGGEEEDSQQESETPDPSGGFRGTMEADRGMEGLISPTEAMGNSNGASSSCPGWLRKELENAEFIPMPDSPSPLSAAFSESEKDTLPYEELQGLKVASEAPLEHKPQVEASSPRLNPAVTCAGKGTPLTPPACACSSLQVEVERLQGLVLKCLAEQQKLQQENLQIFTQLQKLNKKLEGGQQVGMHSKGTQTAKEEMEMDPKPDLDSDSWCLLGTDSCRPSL
# T16 sequence (O96017 whole entry): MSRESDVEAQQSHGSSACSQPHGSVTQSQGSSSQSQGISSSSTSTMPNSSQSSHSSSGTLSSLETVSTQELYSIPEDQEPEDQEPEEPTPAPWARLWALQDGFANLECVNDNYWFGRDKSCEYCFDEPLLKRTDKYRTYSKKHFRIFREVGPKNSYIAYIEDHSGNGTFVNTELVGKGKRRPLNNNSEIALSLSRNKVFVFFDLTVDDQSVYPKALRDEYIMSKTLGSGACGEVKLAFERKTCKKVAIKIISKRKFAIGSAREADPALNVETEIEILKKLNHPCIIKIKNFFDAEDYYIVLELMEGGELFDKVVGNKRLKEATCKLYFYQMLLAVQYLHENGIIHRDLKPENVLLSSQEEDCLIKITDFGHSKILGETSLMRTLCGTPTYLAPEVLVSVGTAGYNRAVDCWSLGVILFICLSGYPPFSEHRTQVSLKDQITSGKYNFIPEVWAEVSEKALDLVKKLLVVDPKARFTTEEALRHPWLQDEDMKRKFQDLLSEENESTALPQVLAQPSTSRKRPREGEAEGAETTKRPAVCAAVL
# T23 sequence (P16234 24-1089 D842V): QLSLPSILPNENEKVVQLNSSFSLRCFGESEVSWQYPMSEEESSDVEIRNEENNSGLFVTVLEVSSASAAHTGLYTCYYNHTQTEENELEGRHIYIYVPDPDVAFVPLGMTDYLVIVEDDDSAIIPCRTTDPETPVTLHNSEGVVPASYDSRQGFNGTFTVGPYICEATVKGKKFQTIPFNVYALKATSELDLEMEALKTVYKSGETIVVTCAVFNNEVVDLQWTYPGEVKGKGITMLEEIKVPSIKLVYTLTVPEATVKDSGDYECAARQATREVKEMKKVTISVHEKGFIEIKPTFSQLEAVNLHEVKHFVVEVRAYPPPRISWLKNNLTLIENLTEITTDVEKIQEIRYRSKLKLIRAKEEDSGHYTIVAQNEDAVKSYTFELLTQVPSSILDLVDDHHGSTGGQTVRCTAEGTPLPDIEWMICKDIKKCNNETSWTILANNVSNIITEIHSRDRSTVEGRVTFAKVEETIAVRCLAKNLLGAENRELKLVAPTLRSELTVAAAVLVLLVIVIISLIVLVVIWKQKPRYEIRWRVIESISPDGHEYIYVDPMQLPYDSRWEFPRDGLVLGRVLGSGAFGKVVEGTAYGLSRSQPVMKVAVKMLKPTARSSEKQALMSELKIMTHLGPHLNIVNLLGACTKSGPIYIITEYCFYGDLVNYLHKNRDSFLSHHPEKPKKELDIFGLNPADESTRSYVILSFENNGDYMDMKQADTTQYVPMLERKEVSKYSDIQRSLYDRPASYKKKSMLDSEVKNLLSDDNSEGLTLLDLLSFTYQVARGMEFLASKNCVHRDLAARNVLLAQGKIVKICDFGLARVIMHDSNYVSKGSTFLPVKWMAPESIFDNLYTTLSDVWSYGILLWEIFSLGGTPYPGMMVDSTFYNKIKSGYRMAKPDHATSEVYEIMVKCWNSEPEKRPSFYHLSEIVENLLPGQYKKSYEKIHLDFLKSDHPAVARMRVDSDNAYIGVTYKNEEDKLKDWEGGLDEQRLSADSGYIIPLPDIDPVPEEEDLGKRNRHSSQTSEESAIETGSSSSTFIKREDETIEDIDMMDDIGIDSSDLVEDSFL
# T6 sequence (P19784 whole entry): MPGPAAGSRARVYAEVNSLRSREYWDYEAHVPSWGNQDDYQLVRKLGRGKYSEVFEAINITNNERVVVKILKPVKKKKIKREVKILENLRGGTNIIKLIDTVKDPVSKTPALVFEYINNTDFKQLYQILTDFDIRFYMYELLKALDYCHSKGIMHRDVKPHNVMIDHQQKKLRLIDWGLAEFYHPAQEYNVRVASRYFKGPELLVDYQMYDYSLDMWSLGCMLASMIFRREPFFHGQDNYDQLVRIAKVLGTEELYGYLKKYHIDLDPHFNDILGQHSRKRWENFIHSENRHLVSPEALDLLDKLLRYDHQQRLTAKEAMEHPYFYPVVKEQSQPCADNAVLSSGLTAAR
# T27 sequence (P29317 24-976): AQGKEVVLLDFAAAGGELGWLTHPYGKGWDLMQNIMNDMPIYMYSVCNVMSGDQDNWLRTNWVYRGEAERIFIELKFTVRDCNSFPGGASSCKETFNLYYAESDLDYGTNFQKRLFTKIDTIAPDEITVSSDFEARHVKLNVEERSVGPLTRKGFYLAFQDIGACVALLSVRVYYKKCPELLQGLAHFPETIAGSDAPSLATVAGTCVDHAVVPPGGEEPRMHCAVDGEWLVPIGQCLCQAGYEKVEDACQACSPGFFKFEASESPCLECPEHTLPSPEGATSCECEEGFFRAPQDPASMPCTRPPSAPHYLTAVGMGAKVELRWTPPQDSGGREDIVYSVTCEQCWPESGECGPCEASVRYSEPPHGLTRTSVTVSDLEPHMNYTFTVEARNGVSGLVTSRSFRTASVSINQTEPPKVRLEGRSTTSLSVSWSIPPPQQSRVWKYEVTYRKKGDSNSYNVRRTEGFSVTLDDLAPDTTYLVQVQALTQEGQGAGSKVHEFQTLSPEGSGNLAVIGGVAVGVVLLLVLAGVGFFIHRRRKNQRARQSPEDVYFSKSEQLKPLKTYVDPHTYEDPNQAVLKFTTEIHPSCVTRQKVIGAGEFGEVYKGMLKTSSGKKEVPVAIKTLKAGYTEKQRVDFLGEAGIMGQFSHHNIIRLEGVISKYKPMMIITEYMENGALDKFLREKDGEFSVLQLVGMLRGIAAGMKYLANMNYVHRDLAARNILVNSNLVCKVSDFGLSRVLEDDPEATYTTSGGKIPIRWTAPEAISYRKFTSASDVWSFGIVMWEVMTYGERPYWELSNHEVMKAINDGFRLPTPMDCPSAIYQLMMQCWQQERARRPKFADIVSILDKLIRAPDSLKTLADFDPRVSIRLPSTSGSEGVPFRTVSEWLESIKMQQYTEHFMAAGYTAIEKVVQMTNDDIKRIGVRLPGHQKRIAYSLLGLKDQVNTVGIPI
# Chain of KIT (P10721 26-976): as the sequence (P10721 26-976 V560G) above, with G535V counted along it
# T28 sequence (P10721 26-976 V559D): as the sequence (P10721 26-976 V560G) above, with V534D, G535V counted along it
structure (smiles),measurement,setting,value
"COc1ccc2[nH]c3c(=O)[nH]c4ccc(O)cc4c3c2c1 [Compound 55, 2-Hydroxy-10-methoxy-5,7-dihydro-6H-indolo[2,3-c]quinolin-6-one]",inhibition at 1 µM,LTK (TYK1),16%
same,inhibition at 1 µM,CSF1R (FMS),63%
same,inhibition at 1 µM,MERTK,44%
same,inhibition at 1 µM,ROS1,29%
same,inhibition at 1 µM,MELK,57%
same,inhibition at 1 µM,KIT V559D V654A,19%
same,inhibition at 1 µM,ERBB4 (HER4),20%
same,inhibition at 1 µM,MAPK3 (ERK1),27%
same,inhibition at 1 µM,STK4 (MST1),99%
same,inhibition at 1 µM,CSNK2A2 (CK2 alpha 2),17%
same,inhibition at 1 µM,EPHA8,10%
same,inhibition at 1 µM,TNK1,30%
same,inhibition at 1 µM,PRKD1 (PKC mu),45%
same,inhibition at 1 µM,PRKCH (PKC eta),15%
same,inhibition at 1 µM,FGFR3 K650E,43%
same,inhibition at 1 µM,PTK6 (Brk),19%
same,inhibition at 1 µM,DYRK1B,96%
same,inhibition at 1 µM,TEK (Tie2),13%
same,inhibition at 1 µM,DAPK3 (ZIPK),44%
same,inhibition at 1 µM,PASK,49%
same,inhibition at 1 µM,ALK,24%
same,inhibition at 1 µM,CHEK2 (CHK2),33%
same,inhibition at 1 µM,MINK1,66%
same,inhibition at 1 µM,CLK1,98%
same,inhibition at 1 µM,AURKA (Aurora A),58%
same,inhibition at 1 µM,NTRK2 (TRKB),80%
same,inhibition at 1 µM,ABL1 E255K,39%
same,inhibition at 1 µM,NEK9,4%
same,inhibition at 1 µM,RPS6KA1 (RSK1),89%
same,inhibition at 1 µM,FES (FPS),25%
same,inhibition at 1 µM,PDGFRA D842V,49%
same,inhibition at 1 µM,KIT V560G,27%
same,inhibition at 1 µM,CDK2/cyclin A,34%
same,inhibition at 1 µM,KIT,6%
same,inhibition at 1 µM,ROCK2,4%
same,inhibition at 1 µM,MST4,61%
same,inhibition at 1 µM,EPHA2,40%
same,inhibition at 1 µM,KIT V559D,37%
same,inhibition at 1 µM,CLK2,97%
